This is an account of results in patent US20120289541A1 (NOVARTIS AG, priority 2010, published 2012).

Where two headings read alike, the source gives them in different places.

Data set [1] can be described thus: External ear dosing of 3% moxigel after 10% or 50% IPM pretreatment, MEF microdialysis. The settings on record: 3% moxigel 9 mg external ear, mean.
Data set [2] is described as follows: Non-specific binding to ultrafiltration device in PBS.
The conditions of data set [3]: cited from earlier work.
Data set [4] is described as follows: in vitro. In kind it is in vitro ADME. To be noted: bovine, pH 7.4. An excerpt:
The volume of serous middle ear fluid (MEF) that accumulates in non-infected chinchillas with Eustachian tube obstruction varies greatly. […] It became necessary to formulate an artificial middle ear fluid (AMEF) that mimics the MEF.

Data set [5] in a line: in vitro.

For `COc1c(N2C[C@@H]3CCCN[C@@H]3C2)c(F)cc2c(=O)c(C(=O)O)cn(C3CC3)c12` [moxifloxacin], in data set [1], the “Time to reach 10 μg/mL” value is listed as 618 min. The free fraction (fraction unbound) is ~1 in data set [2] and 0.84 to 0.92 in data set [4]. The figures for the unbound share (fraction unbound) at 220 μg/ml in data set [2] and in data set [4] (isolated protein) were 0.97 ± 0.026 and 0.84 ± 0.063, respectively. The elimination rate constant is 0.0075 ± 0.0010 min⁻¹ (high intrabulla dose (150 μg)); 0.0093 min⁻¹ (intrabulla dosing, mean of both doses); 0.0102 ± 0.0040 min⁻¹ (low intrabulla dose (50 μg)). For the same compound, the “mean AUC” value in data set [3] (human, in vivo, po, 400 mg) was 2170 µg·min/mL. For the same compound, the “concentration observed in plasma” value in data set [3] (humans, oral dose of 400 mg, Owens & Ambrose 2002) is 2000 ng/mL. Further, the “total (bound plus free) maximum concentration in plasma” value in data set [3] (humans, oral dose of 400 mg) was 3.1 µg/mL. The fraction unbound at 492 μg/ml in data set [4] (isolated protein) stood at 0.92 ± 0.013; in data set [5], 0.75 ± 0.02.

As usually defined, the fraction unbound is the share of the substance not bound to proteins or other matrix. A lower fraction unbound goes with little free substance.
